Reference: US20120027777A1, “LJUNGAN VIRUS WITH IMPROVED REPLICATION CHARACTERISTICS” (APODEMUS AB, priority 2009, published 2012)

Test system: GMK cells
Test: Cellular DNA degradation by electrophoresis
Format: cell-based, Green Monkey
Details: uninfected GMK cells, 16 h treatment, 0.5 μM, positive control
Method: Degradation of chromosomal DNA is one of the hallmarks of apoptotic cells. DNA degradation in GMK cells infected with 145SL and 145SLG as well as recombinant derivatives of these viruses was assayed as previously described by with some minor modifications. Briefly, subconfluent GMK cells in T25-flasks were infected with 0.5 mL of virus lysates generated from viral cDNA clones by transfection and subsequent blind passage as previously described. […] Lysis of cells was induced using 0.2% Triton X-100, 0.5 mM EDTA in 10 mM Tris-HCl, pH 7.4. Fragmented chromatin was released from cell nuclei by vortexing. The nucleic components were separated (20,000×g for 10 min at 4° C.) and the nucleic acids in the supernatant fraction were precipitated. After precipitation, the nucleic acids were washed in 70% ethanol and dissolved in 50 μl TE buffer (1 mM EDTA, 10 mM Tris-HCl, pH 7.4). The RNA fraction of isolated nucleic acids was degraded using RNase A (10 μg/ml for 30 min at 37° C.). Finally, 1 μg isolated nucleic acids of each sample were separated by electrophoresis in a 1.5% agarose gel. Apoptosis in control cells was induced by a 16 h treatment of GMK cells with 0.5 μM staurosporine (Sigma), a broad spectrum protein kinase inhibitor [10]. The nucleic acids from these control cells were otherwise treated in the same way as described for cells infected with LV.

CN[C@@H]1C[C@H]2O[C@@](C)([C@@H]1OC)n1c3ccccc3c3c4c(c5c6ccccc6n2c5c31)C(=O)NC4 [staurosporine]
DNA fragmentation: expected processing of the nuclear DNA
